{"source": "patent US20070167440A1", "about": "“Novel pyrrolidine compound and a process for preparing the same” (priority 2004, published 2007)", "origin": "cited, not measured here", "test_system": "gastric motility", "details": "mice; disclosed in JP1993-17434"}
{"smiles": "COc1cc(N)c(Cl)cc1C(=O)NC1CC(CO)N(C(c2ccccc2)c2ccccc2)C1", "note": "(stereo not shown) [4-amino-5-chloro-N-[1-(diphenylmethyl)-5-(hydroxymethyl)-3-pyrrolidinyl]-2-methoxy-benzamide]", "values": [{"measurement": "gastric motility", "value": "increased gastric motility"}]}
